Measured values taken from publication PMC12598805, “Crystal Structure–Activity Relationship of Some MeO Phenylacrylonitriles: Dual Antimicrobial–Cytotoxic Effects and in Silico Perspectives” (ChemistryOpen, 2025).
Values after ≈ are worked out from the molar mass of the structure shown.

How the values were obtained:
Type in all cases: cell-based
[1] = test system: Bacillus subtilis (ATCC-19659); assay: Broth microdilution MIC; details: ATCC19659
Protocol: (§1) ATCC: American Type Culture Collection; NRRL: Northern Regional Research Laboratory The compounds 2(a-c) obtained could only be completely solubilised with dimethyl sulphoxide (DMSO) and the highest possible stock solutions of 50 mg.mL-1 were prepared. […]
(§2) 3.1. Determination of Minimum Inhibition Concentration (MIC)
(§3) The minimum inhibition concentration (MIC) values of the compounds 2(a-c) against the test bacteria used in the study were determined according to the broth microdilution method.[1-2] MHB or SDB was used as test medium and bacterial and yeast suspensions were prepared at 0.5 Mc Farland concentration for each test bacteria. Double layer serial dilutions were prepared in "U" type 96-well microtiter plates. Medium+bacteria suspensions containing only medium in the first row, medium+bacteria in the second row and the final concentrations of the synthesised substances in the other rows between 25 mg.mL-1 and […] were added to the wells with a final volume of 200
(§4) μL. Ampicillin, Kanamycin and Amphotericin B standard antibiotics were used as positive controls.
(§5) Bacteria were incubated at 37±0.1 °C and C. albicans at 30±0.1 °C for 24-48 hours and the lowest concentration without growth was determined as MIC. Tests were performed in two parallel runs and mean values were given as a result. […]

[2] = test system: Bacillus subtilis (ATCC-19659); assay: Agar diffusion, zone of inhibition; details: B.subtilis, antibiotics at 5 mg mL^−1
Description: (§6) The antibacterial and antifungal activities were reported utilizing the method described by the Clinical & Laboratory Standards Institute.^[ [31], [32] ^] Agar diffusion method was used to determine the antimicrobial activity of the synthesized substances. The media used were mueller hinton agar (MHA) for bacteria and sabouraud‐dextrose agar (SDA) for fungi (Merck), as recommended by the manufacturer.
(§7) The synthesized compounds were initially investigated for their antimicrobial activity to elucidate the potential therapeutic utility against various pathogenic microbes using the agar plate diffusion method. The compounds were tested at a concentration of 50 mg mL^−1, and the antibiotics (ampicillin, kanamycin, and amphotericin B) were used at 5 mg mL^−1. […] K.pneumoniae and B.cereus were resistant to ampicillin, while they were susceptible to kanamycin with inhibition values of 30 and 26 mm, respectively. No antimicrobial activity of the compounds was observed against E.faecalis, S.typhimurium, K.pneumoniae, and for the fungus compared to Amphotericin B (20 mm). […]
(§8) ATCC: American Type Culture Collection; NRRL: Northern Regional Research Laboratory The compounds 2(a-c) obtained could only be completely solubilised with dimethyl sulphoxide (DMSO) and the highest possible stock solutions of 50 mg.mL-1 were prepared. To these wells 50 μl of the previously prepared substances were transferred using sterile micropipette tips. For comparison, Ampicillin and kanamycin antibiotics for bacteria and Amphotericin B antibiotics for fungus were used as positive controls and DMSO was used as negative control. The prepared petri plates were kept at +4°C for about 1 hour and then the bacterial cultures were incubated at 37°C for 18-24 hours and mould cultures at 27-30°C for 48-72 hours. The zones formed were measured millimetrically with callipers. The experiments were performed with three repetitions. […]

[3] = test system: Escherichia coli (ATCC 25922); assay: Agar diffusion, zone of inhibition; details: antibiotics at 5 mg mL^−1
Description: as §6, §7
(§9) Escherichia coli (ATCC 25922) […]
as §8

[4] = test system: Enterococcus faecalis (ATCC 29212); assay: Broth microdilution MIC; details: ATCC29212, E.faecalis
Protocol: (§10) Enterococcus faecalis (ATCC 29212) […]
as §1, §2, §3, §4, §5

[5] = test system: Pseudomonas aeruginosa (ATCC 27853); assay: MBC by sub-culture from wells without growth; details: ATCC27853, P.aeruginosa
Protocol: (§11) Pseudomonas aeruginosa (ATCC 27853) […]
as §1, §2, §3, §4
(§12) Bacteria were incubated at 37±0.1 °C and C. albicans at 30±0.1 °C for 24-48 hours and the lowest concentration without growth was determined as MIC. Tests were performed in two parallel runs and mean values were given as a result. In order to estimate “the minimum bactericidal/fungicidal concentrations (MBC/MFC) of the synthesised acrylonitrile derivatives “needed to indicate […] killing of the original inoculum,” 10 μl was taken from the wells with no observed growth and further sub-cultured onto their agar media (MHA and SDA for bacterial and fungal strains, respectively).[3] […]

[6] = test system: Micrococcus luteus (NRRL-B-1018); assay: MBC by sub-culture from wells without growth; details: NRRLB1018, M.luteus
Protocol: (§13) Micrococcus luteus (NRRL-B-1018) […]
as §1, §2, §3, §4, §12

[7] = test system: Bacillus cereus (ATCC-10876); assay: Agar diffusion, zone of inhibition; details: B.cereus, antibiotics at 5 mg mL^−1
Description: as §6
The synthesized compounds were initially investigated for their antimicrobial activity to elucidate the potential therapeutic utility against various pathogenic microbes using the agar plate diffusion method. The compounds were tested at a concentration of 50 mg mL^−1, and the antibiotics (ampicillin, kanamycin, and amphotericin B) were used at 5 mg mL^−1. […] K.pneumoniae and B.cereus were resistant to ampicillin, while they were susceptible to kanamycin with inhibition values of 30 and 26 mm, respectively. No antimicrobial activity of the compounds was observed against E.faecalis, S.typhimurium, K.pneumoniae, and for the fungus compared to Amphotericin B (20 mm).
Bacillus cereus (ATCC-10876) […]
as §8

[8] = test system: Escherichia coli (ATCC 25922); assay: Broth microdilution MIC; details: ATCC25922, E.coli
Protocol: as §9, §1, §2, §3, §4, §5

[9] = test system: Staphylococcus aureus (ATCC 29213); assay: Broth microdilution MIC; details: ATCC29213, S.aureus
Protocol: (§14) Staphylococcus aureus (ATCC 29213) […]
as §1, §2, §3, §4, §5

[10] = test system: Micrococcus luteus (NRRL-B-1018); assay: Agar diffusion, zone of inhibition; details: M.luteus, antibiotics at 5 mg mL^−1
Description: as §6, §7, §13, §8

[11] = test system: Micrococcus luteus (NRRL-B-1018); assay: Broth microdilution MIC; details: NRRLB1018, M.luteus
Protocol: as §13, §1, §2, §3, §4, §5

[12] = test system: Klebsiella pneumoniae (ATCC-70063); assay: Agar diffusion, zone of inhibition; details: K.pneumoniae, antibiotics at 5 mg mL^−1
Description: as §6, §7
Klebsiella pneumoniae (ATCC-70063)
as §8

[13] = test system: Enterococcus faecalis (ATCC 29212); assay: Agar diffusion, zone of inhibition; details: ATCC29212, E.faecalis, antibiotics at 5 mg mL^−1
Description: as §6, §7, §10, §8

[14] = test system: Escherichia coli (ATCC 25922); assay: MBC by sub-culture from wells without growth; details: ATCC25922, E.coli
Protocol: as §9, §1, §2, §3, §4, §5

[15] = test system: Bacillus subtilis (ATCC-19659); assay: MBC by sub-culture from wells without growth; details: ATCC19659, B.subtilis
Protocol: as §1, §2, §3, §4, §5

[16] = test system: Salmonella typhimurium (NRRL-B-4420); assay: Agar diffusion, zone of inhibition; details: Salmonella enterica; S.typhimurium; antibiotics at 5 mg mL^−1
Description: as §6, §7
Salmonella typhimurium (NRRL-B-4420) […]
as §8

[17] = test system: Pseudomonas aeruginosa (ATCC 27853); assay: Agar diffusion, zone of inhibition; details: P.aeruginosa, antibiotics at 5 mg mL^−1
Description: as §6, §7, §11, §8

[18] = test system: Enterococcus faecalis (ATCC 29212); assay: MBC by sub-culture from wells without growth; details: ATCC29212, E.faecalis
Protocol: as §10, §1, §2, §3, §4, §5

[19] = test system: Staphylococcus aureus (ATCC 29213); assay: Agar diffusion, zone of inhibition; details: S.aureus, antibiotics at 5 mg mL^−1
Description: as §6, §7, §14, §8

[20] = test system: Staphylococcus aureus (ATCC 29213); assay: MBC by sub-culture from wells without growth; details: ATCC29213, S.aureus
Protocol: as §14, §1, §2, §3, §4, §12

[21] = test system: Pseudomonas aeruginosa (ATCC 27853); assay: Broth microdilution MIC; details: ATCC27853, P.aeruginosa
Protocol: as §11, §1, §2, §3, §4, §5

Structure (SMILES): CC1(C)S[C@@H]2[C@H](NC(=O)[C@H](N)c3ccccc3)C(=O)N2[C@H]1C(=O)O [Ampicillin, reference compound]
- MIC [1]: 12500 µg/mL (≈ 35800 µM)
- zone of inhibition [2]: 32 ± 1.41 mm
- zone of inhibition at 5 mg/mL ([2]; Bacillus subtilis, ATCC19659): 32 mm
- zone of inhibition ([3]; E.coli): 25 ± 0.71 mm
- zone of inhibition at 5 mg/mL ([3]; Escherichia coli, ATCC25922, E.coli): 23 mm
- MIC [4]: 250 µg/mL (≈ 715 µM)
- MBC [5]: 62.5 µg/mL (≈ 179 µM)
- MBC [6]: 31.2 µg/mL (≈ 89.4 µM)
- zone of inhibition [7]: resistant
- zone of inhibition at 5 mg/mL ([7]; Bacillus cereus, ATCC10876): < 6 mm
- MIC [8]: 31.2 µg/mL (≈ 89.4 µM)
- MIC [9]: 250 µg/mL (≈ 715 µM)
- zone of inhibition [10]: 44 ± 5.66 mm
- zone of inhibition at 5 mg/mL ([10]; Micrococcus luteus, NRRLB1018): 44 mm
- MIC [11]: 31.2 µg/mL (≈ 89.4 µM)
- zone of inhibition [12]: resistant
- zone of inhibition at 5 mg/mL ([12]; Klebsiella pneumoniae, ATCC70063): < 6 mm
- zone of inhibition at 5 mg/mL [13]: 34 ± 0.71 mm
- MBC [14]: 31.2 µg/mL (≈ 89.4 µM)
- MBC [15]: 25000 µg/mL (≈ 71500 µM)
- zone of inhibition at 5 mg/mL [16]: 25 mm
- zone of inhibition [17]: 30 ± 0.71 mm
- zone of inhibition at 5 mg/mL ([17]; Pseudomonas aeruginosa, ATCC27853): 30 mm
- MBC [18]: 250 µg/mL (≈ 715 µM)
- zone of inhibition [19]: 24 ± 1.41 mm
- zone of inhibition at 5 mg/mL ([19]; Staphylococcus aureus, ATCC29213): 24 mm
- MBC [20]: 250 µg/mL (≈ 715 µM)
- MIC [21]: 62.5 µg/mL (≈ 179 µM)
